Assay results from paper PMC7056863, “Development of a CDK10/CycM in vitro Kinase Screening Assay and Identification of First Small-Molecule Inhibitors” (Frontiers in Chemistry, 2020).
Where two headings read alike, the source gives them in different places. Values belong to the molecule of their own block, whether it stands above or below them.

Legend:
[1] = target: T1, GST-CDK10/Strep2-CycM (CDK10/CycM) (Homo sapiens, UniProt Q15131); test: in vitro kinase assay; format: biochemical; details: for inhibition at 1 µM: read-out: % inhibition at 1 uM
T1 construct: GST-CDK10 co-expressed with Strep2-CycM (pFastBacDual) in Sf9 cells, glutathione sepharose purified heterodimer, tags kept; with Cyclin-Q

[2] = target: T1, GST-CDK10/Strep2-CycM (CDK10/CycM); test: ADP-Glo luminescent kinase assay, CDK10tide (Jar1) peptide; format: biochemical
Excerpt: ADP-Glo luminescent kinase assay, CDK10tide (Jar1) peptide on GST-CDK10/Strep2-CycM (CDK10/CycM)

[3] = substrate: Nc1ncnc2c1ncn2[C@@H]1O[C@H](COP(=O)(O)OP(=O)(O)OP(=O)(O)O)[C@@H](O)[C@H]1O; test: ADP-Glo luminescent kinase assay, ATP titration, Michaelis-Menten; format: biochemical, Homo sapiens; details: […] CDK10tide, […] enzyme, […] ATP, […] MgCl2, pH […]
[4] = read-out: CDK10/CycM (measured herein)

T1 sequence (Q8N1B3 whole entry partner, one chain of several): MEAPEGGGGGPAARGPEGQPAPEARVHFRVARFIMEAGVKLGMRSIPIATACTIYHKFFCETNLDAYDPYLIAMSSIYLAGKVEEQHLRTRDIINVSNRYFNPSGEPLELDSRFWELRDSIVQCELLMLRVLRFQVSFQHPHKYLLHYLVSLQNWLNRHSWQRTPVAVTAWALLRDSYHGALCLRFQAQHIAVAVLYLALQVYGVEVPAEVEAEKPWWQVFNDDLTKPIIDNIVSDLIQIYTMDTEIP

- % inhibition at 1 uM ([1]; data not shown, text: not greater than […]): < 50%
Molecule: meriolin

- IC50 [2, 4]: 36 nM
Molecule: CC(=O)N[C@@H]1CCC[C@H](C(=O)Nc2cc(-c3cnn4c3CC(C)(C)C4)c(Cl)cn2)C1 [AZD4573]

- inhibition at 1 µM [1]: < 50%
Molecule: CC(=O)c1c(C)c2cnc(Nc3ccc(N4CCNCC4)cn3)nc2n(C2CCCC2)c1=O [palbociclib]

- inhibition at 1 µM [1]: < 50%
Molecule: CC[C@H](CO)Nc1nc(NCc2ccc(-c3ccccn3)cc2)c2ncn(C(C)C)c2n1 [CR8]

- IC50 ([2]; read-out: CDK9/CycT1 (measured herein)): 13 nM
Molecule: CCc1cnn2c(NCc3ccc[n+]([O-])c3)cc(N3CCCC[C@H]3CCO)nc12 [dinaciclib]

The remaining lines, values behind:

Molecule: Cn1cnc2c(NCc3ccccc3)nc(NCCO)nc21 [olomoucine]
- inhibition at 1 µM [1]: < 50%

Molecule: CN1CC[C@H](c2c(O)cc(O)c3c(=O)cc(-c4ccccc4Cl)oc23)[C@H]1CO [riviciclib]
- IC50 [2, 4]: 280 nM

Molecule: CC[C@H](CO)Nc1nc(NCc2ccccc2)c2ncn(C(C)C)c2n1 [roscovitine]
- inhibition at 1 µM [1]: < 50%

B1: GST-CDK10/Strep2-CycM (CDK10/CycM) (Homo sapiens) (protein)
chain: MAEPDLECEQIRLKCIRKEGFFTVPPEHRLGRCRSVKEFEKLNRIGEGTYGIVYRARDTQTDEIVALKKVRMDKEKDGIPISSLREITLLLRLRHPNIVELKEVVVGNHLESIFLVMGYCEQDLASLLENMPTPFSEAQVKCIVLQVLRGLQYLHRNFIIHRDLKVSNLLMTDKGCVKTADFGLARAYGVPVKPMTPKVVTLWYRAPELLLGTTTQTTSIDMWAVGCILAELLAHRPLLPGTSEIHQIDLIVQLLGTPSENIWPGFSKLPLVGQYSLRKQPYNNLKHKFPWLSEAGLRLLHFLFMYDPKKRATAGDCLESSYFKEKPLPCEPELMPTFPHHRNKRAAPATSEGQSKRCKP
notes: GST-CDK10 co-expressed with Strep2-CycM (pFastBacDual) in Sf9 cells, glutathione sepharose purified heterodimer, tags kept; with Cyclin-Q
- Km [3]: 177 µM
